# Data taken from US5132409A, “Macrocyclic chelating agents and chelates thereof” (Bracco Industria Chimica S.p.A., priority 1987, dated 1992).
# Assays:
# mouse = assay: Determination of LD50 in the mouse by intravenous administration; assay type: in vivo; conditions: male and female mice, strain Crl:CD1(ICR)BR
# Text: Determination of LD50 in the Mouse by Intravenous Administration of the Compounds of the Present Invention
# In table II are reported, as non-limiting examples, the LD50 values for compounds A and B of the present invention, in comparison with GdCl3 and with Gd/DTPA neutralized with N-methylglucamine.
# *male and female mice were used, Strain: Crl:CD1(ICR)BR
# [1] = Determination of relaxivity (MINISPEC PC 120 BRUKER, 20 MHz proton, 39° C.); assay type: physicochemical; conditions: pH 7.3, aqueous solvent, 0-5 mM; for Transverse relaxivity (R2): Carr, Purcell, Meiboom and Gill sequence; for Longitudinal relaxivity (R1): Inversion Recovery
# Procedure: Determination of the Relaxivity of the Compounds of the Present Invention
# A) Apparatus: […] PC 120 (BRUKER)
# B) Observation frequency:
# 39° C., with pre-thermostatization
# of the NMR test tube for 10 min
# at the operative temperature
# in the range from 0 to 5 mM with the
# following specific measuring points:
# F) pH: 7.3, to be checked again
# potentiometrically before the
# relaxation measurement.
# Longitudinal relaxivity (R1) measurements were calculated using the "Inversion Recovery" sequence with an 8 point minimum and a 3 parameter fit, according to the program provided for the […] 120 BRUKER instrument, by which measurements were taken.
# Transverse relaxivity (R2) measurements were calculated using the sequence of Carr, Purcell, Meiboom and Gill, according to the program provided for the […] 120 BRUKER instrument, by means of which measurements were taken, adjusting the apparatus in such a way as to observe the decay of the signal to about 1/3 of the starting value, with a score number higher or equal to 10 and a 2 parameter fit.
# [2] = background statement in words; cited from earlier work
Molecule,LD50 in the mouse (mouse),Transverse relaxivity (R2) [1] [mM/s],Longitudinal relaxivity (R1) [1] [mM/s],removal from the blood stream and from the lesions of the tissues under examination [2]
"CNC[C@H](O)[C@@H](O)[C@H](O)[C@H](O)CO.CNC[C@H](O)[C@@H](O)[C@H](O)[C@H](O)CO.O=C([O-])CN(CCN(CC(=O)[O-])CC(=O)O)CCN(CC(=O)[O-])CC(=O)O.[Gd+3] [Gd/DTPA, reference compound]",4.8 (4.47-5.16) mmol/kg,5.15 ± 0.02,4.08 ± 0.01,too quickly removed from the blood stream and from the lesions of the tissues under examination
"[Cl][Gd]([Cl])[Cl] [GdCl3, reference compound]",0.28 (0.24-0.32) mmol/kg,–,–,–
"D(-)-N-methylglucamine salt of Gd^(3+) /2-[1,4,7,10-tetraaza-4,7,10-tri(carboxymethyl)-cyclododecane-1-yl]-3-hydroxypropionic acid complex",13.1 (12.2-14.1) mmol/kg,5.06 ± 0.01,3.72 ± 0.01,–
"D(-)-N-methylglucamine salt of the Gd^(3+) /2-[1,4,7,10-tetraaza-4,7,10-tri(carboxymethyl)-cyclododecane-1-yl]-3-benzyloxypropionic acid complex",8.8 (7.79-9.94) mmol/kg,5.67 ± 0.02,4.15 ± 0.01,–
